# From ChEMBL document CHEMBL6177984, “Pyrazolo[1,5-a]pyrimidine-Based Type-I Photosensitizer as an Efficient Pyroptosis Inducer for Tumor Ablation” (J Med Chem, 2025)
# Active and inactive are the calls of the source. No cut-off for these calls is given here.
# Experiments:
# [1] = test system: MDA-MB-231; assay: Induction of ROS production in human MDA-MB-231 cells assessed as increase in intracellular OH level at 0.3 uM preincubated with compound for 1 hr followed by light irradiation with 400 to 700 nm 100 mW/cm2 for 10 mins by HPF fluorescent probe based flow cytometry; assay type: functional, cell-based; details: time 70.0 min
# [2] = test system: MDA-MB-231; assay: Induction of pyroptosis in human MDA-MB-231 cells assessed as formation of bubble-like protrusion on plasma membrane at 0.5 uM preincubated with compound for 1 hr followed by light irradiated with 400 to 700 nm 100 mW/cm^2 for 10 mins and measured after 6 hrs by DiO staining based confocal microscopic analysis; assay type: functional, cell-based; details: time 430.0 min
# [3] = test system: 4T1; assay: Photocytotoxicity in mouse 4T1 cells assessed as cell viability up to 10 uM preincubated with compound for 1 hr followed by light irradiated with 400 to 700 nm 100 mW/cm^2 for 10 mins and measured after 24 hrs by CCK-8 assay; assay type: functional, cell-based; details: time 1510.0 min
# [4] = test system: 4T1; assay: (§1) Antitumor activity against mouse 4T1 cells implanted in BALB/c mouse assessed as increase CD4+ CD8+ cells in spleen at 1 mg/kg, iv using self assembled nanoparticle as source of compound preincubated with compound for 3 hrs followed by irradiation with 400 to 700 nm 100 mW/cm2 for 5 mins and measured after 14 days by flow cytometry analysis; assay type: functional, organism-based; details: time 20345.0 min
# [5] = Toxicity in BALB/c mouse implanted with mouse 4T1 cells assessed as spleen damage at 1 mg/kg, iv using self assembled nanoparticle as source of compound measured up to 16 days by H and E staining based analysis; assay type: organism-based; details: in vivo, 384 h, time < 16 day
# [6] = test system: MDA-MB-231; assay: Induction of pyroptosis in human MDA-MB-231 cells assessed as increase in IL-18 content at 0.5 uM preincubated with compound for 1 hr followed by light irradiated with 400 to 700 nm 100 mW/cm^2 for 10 mins and measured after 12 to 20 hrs; assay type: functional, cell-based; details: time 790-1270 min
# [7] = test system: MDA-MB-231; assay: Photocytotoxicity in human MDA-MB-231 cells assessed as cell viability preincubated with compound for 1 hr followed by light irradiated with 400 to 700 nm 100 mW/cm^2 for 10 mins and measured after 24 hrs under hypoxic condition by CCK-8 assay; assay type: functional, cell-based; details: MDA-MB-231, light or radiation study
# [8] = test system: MDA-MB-231; assay: Induction of pyroptosis in human MDA-MB-231 cells assessed as swelling bubble formation at 0.5 uM preincubated with compound for 3 hrs followed by light irradiated with 400 to 700 nm 100 mW/cm^2 for 10 mins by confocal microscopic analysis; assay type: functional, cell-based; details: time 190.0 min
# [9] = test system: 4T1; assay: as §1, with “increase” for “increase CD4+ CD8+ cells”, “caspase-3 level” for “spleen”, “days” for “days by flow cytometry analysis”; assay type: functional, organism-based; details: time 20345.0 min
# [10] = test system: MDA-MB-231; assay: Upregulation of N-terminal GSDME expression in human MDA-MB-231 cells at 0.5 to 1 uM preincubated with compound for 1 hr followed by light irradiated with 400 to 700 nm 100 mW/cm^2 for 10 mins and measured after 6 hrs by Western blot analysis; assay type: functional, cell-based; details: dose 0.5-1 µM, time 430.0 min
# [11] = test system: MDA-MB-231; assay: (§2) Induction of pyroptosis mediated immunogenic cell death in human MDA-MB-231 cells assessed as HMGB1 release from nucleus at 0.5 uM preincubated with compound for 1 hr followed by light irradiated with 400 to 700 nm 100 mW/cm^2 for 10 mins and measured after 18 hrs; assay type: functional, cell-based; details: time 1150.0 min
# [12] = test system: MDA-MB-231; assay: Photocytotoxicity in human MDA-MB-231 cells assessed as cell viability preincubated with compound for 1 hr followed by light irradiated with 400 to 700 nm 100 mW/cm^2 for 10 mins and measured after 24 hrs by CCK-8 assay; assay type: functional, cell-based; details: MDA-MB-231, light or radiation study
# [13] = test system: 4T1; assay: Antitumor activity against mouse 4T1 cells implanted in BALB/c mouse at 1 mg/kg, iv using self assembled nanoparticle as source of compound measured at 3 hrs; assay type: functional, organism-based
# [14] = test system: MDA-MB-231; assay: Induction of ROS production in human MDA-MB-231 cells assessed as increase in green fluorescence intensity at 0.3 uM preincubated with compound for 1 hr followed by light irradiation with 400 to 700 nm 100 mW/cm2 for 10 mins by HPF fluorescent probe based flow cytometry; assay type: functional, cell-based; details: time 70.0 min
# [15] = Toxicity in BALB/c mouse implanted with mouse 4T1 cells assessed as kidney damage at 1 mg/kg, iv using self assembled nanoparticle as source of compound measured up to 16 days by H and E staining based analysis; assay type: organism-based; details: in vivo, 384 h, time < 16 day
# [16] = test system: MDA-MB-231; assay: Induction of pyroptosis in human MDA-MB-231 cells assessed as change in LDH level at 0.5 uM preincubated with compound for 1 hr followed by light irradiated with 400 to 700 nm 100 mW/cm^2 for 10 mins and measured after 12 to 24 hrs; assay type: functional, cell-based; details: time 790-1510 min
# [17] = test system: MDA-MB-231; assay: Photocytotoxicity in human MDA-MB-231 cells assessed as cell viability at 1 uM preincubated with compound for 1 hr followed by light irradiated with 400 to 700 nm 100 mW/cm^2 for 10 mins and measured after 24 hrs by CCK-8 assay; assay type: functional, cell-based; details: time 1510.0 min
# [18] = test system: MDA-MB-231; assay: Induction of ROS production in human MDA-MB-231 cells assessed as increase in red fluorescence intensity at 0.3 uM preincubated with compound for 1 hr followed by light irradiation with 400 to 700 nm 100 mW/cm2 for 10 mins by […] fluorescent probe based flow cytometry; assay type: functional, cell-based; details: time 70.0 min
# [19] = test system: MDA-MB-231; assay: Dark cytotoxicity against human MDA-MB-231 cells assessed as cell viability at 1 uM incubated for 24 hrs by CCK8 assay; assay type: toxicity, cell-based; details: mda-mb-231, 24 h
# [20] = test system: MDA-MB-231; assay: (§3) Photocytotoxicity in human MDA-MB-231 cells assessed as cell death by measuring red fluorescence intensity at 0.5 uM preincubated with compound for 1 hr followed by light irradiated with 400 to 700 nm 100 mW/cm^2 for 10 mins and measured after 24 hrs by PI staining based confocal microscopic analysis; assay type: functional; details: time 1510.0 min
# [21] = test system: MDA-MB-231; assay: Effect on GSDME expression in human MDA-MB-231 cells at 0.5 to 1 uM incubated for 3 hrs by Western blot analysis; assay type: functional, cell-based; details: dose 0.5-1 µM
# [22] = test system: MDA-MB-231; assay: Induction of pyroptosis mediated immunogenic cell death in human MDA-MB-231 cells assessed as increase in CRT exposure on cell membrane at 0.5 uM preincubated with compound for 1 hr followed by light irradiated with 400 to 700 nm 100 mW/cm^2 for 10 mins and measured after 18 hrs; assay type: functional, cell-based; details: time 1150.0 min
# [23] = test system: MDA-MB-231; assay: Induction of ROS production in human MDA-MB-231 cells assessed as increase in red fluorescence intensity at 0.3 uM preincubated with compound for 1 hr followed by light irradiation with 400 to 700 nm 100 mW/cm2 for 10 mins by DHE fluorescent probe based flow cytometry; assay type: functional, cell-based; details: time 70.0 min
# [24] = Toxicity in BALB/c mouse implanted with mouse 4T1 cells assessed as change in body weight at 1 mg/kg, iv using self assembled nanoparticle as source of compound measured up to 16 days; assay type: organism-based; details: in vivo, 384 h, time < 16 day
# [25] = Toxicity in BALB/c mouse implanted with mouse 4T1 cells assessed as liver damage at 1 mg/kg, iv using self assembled nanoparticle as source of compound measured up to 16 days by H and E staining based analysis; assay type: organism-based; details: in vivo, 384 h, time < 16 day
# [26] = test system: MDA-MB-231; assay: Induction of ROS production in human MDA-MB-231 cells assessed as increase in […] fluorescence intensity at 0.3 uM preincubated with compound for 1 hr followed by light irradiation with 400 to 700 nm 100 mW/cm2 for 10 mins by DHE fluorescent probe based flow cytometry; assay type: functional, cell-based; details: time 70.0 min
# [27] = Induction of ROS generation in BPS buffer assessed as increase in superoxide anion radical level by measuring increase in DHR123 fluorescence intensity at 10 uM irradiated with 400 to 700 nm 20 mW/cm2 light by DHR123 probe based fluorescence spectra analysis; assay type: functional; details: time <= 10.0 min
# [28] = test system: MDA-MB-231; assay: Photocytotoxicity in human MDA-MB-231 cells assessed as reduction in ATP level at 0.5 uM preincubated with compound for 6 hrs followed by light irradiated with 400 to 700 nm 100 mW/cm^2 for 10 mins; assay type: functional, cell-based; details: time 370.0 min
# [29] = Drug uptake in human MDA-MB-231 cells at 2 uM measured at 1 hr by flow cytometry analysis; assay type: ADME, cell-based; details: mda-mb-231, 1 h
# [30] = test system: MDA-MB-231; assay: Induction of pyroptosis in human MDA-MB-231 cells assessed as increase in IL-1beta content at 0.5 uM preincubated with compound for 1 hr followed by light irradiated with 400 to 700 nm 100 mW/cm^2 for 10 mins and measured after 12 to 20 hrs; assay type: functional, cell-based; details: time 790-1270 min
# [31] = test system: MDA-MB-231; assay: as §2, with “increase in ATP” for “HMGB1”, “release” for “release from nucleus”, “6 to 12” for “18”, “hrs by microplate luminometer analysis” for “hrs”; assay type: functional, cell-based; details: time 430-790 min
# [32] = test system: MDA-MB-231; assay: as §3, with “cell viability” for “cell death”, “measuring green” for “measuring red”, “by Calcein-AM” for “by PI”; assay type: functional; details: time 1510.0 min
# [33] = test system: 4T1; assay: Induction of pyroptosis in mouse 4T1 cells preincubated with compound for 1 hr followed by light irradiated with 400 to 700 nm 100 mW/cm^2 for 10 mins; assay type: functional, cell-based; details: time 70.0 min
# [34] = test system: MDA-MB-231; assay: Upregulation of cleaved caspase expression in human MDA-MB-231 cells at 0.5 to 1 uM preincubated with compound for 1 hr followed by light irradiated with 400 to 700 nm 100 mW/cm^2 for 10 mins and measured after 3 hrs by Western blot analysis; assay type: functional, cell-based; details: dose 0.5-1 µM, time 250.0 min
# [35] = test system: 4T1; assay: as §1, with “lymph” for “spleen”; assay type: functional, organism-based; details: time 20345.0 min
# [36] = Dark cytotoxicity against human MDA-MB-231 cells assessed as cell viability incubated for 24 hrs by CCK8 assay; assay type: toxicity, cell-based
# [37] = Toxicity in BALB/c mouse implanted with mouse 4T1 cells assessed as heart damage at 1 mg/kg, iv using self assembled nanoparticle as source of compound measured up to 16 days by H and E staining based analysis; assay type: organism-based; details: in vivo, 384 h, time < 16 day
# [38] = test system: MDA-MB-231; assay: Induction of apoptosis in human MDA-MB-231 cells assessed as cell death by flow cytometry analysis; assay type: functional, cell-based
# [39] = Induction of ROS generation in BPS buffer assessed as increase in singlet oxygen level by measuring reduction in ABDA absorption peak at 10 uM irradiated with 400 to 700 nm 20 mW/cm2 light […]; assay type: functional
# [40] = test system: MDA-MB-231; assay: Effect on caspase-3 expression in human MDA-MB-231 cells at 0.5 to 1 uM incubated for 3 hrs by Western blot analysis; assay type: functional, cell-based; details: dose 0.5-1 µM
# [41] = Toxicity in BALB/c mouse implanted with mouse 4T1 cells assessed as lung damage at 1 mg/kg, iv using self assembled nanoparticle as source of compound measured up to 16 days by H and E staining based analysis; assay type: organism-based; details: in vivo, 384 h, time < 16 day
smiles,measurement,setting,value
O=S(=O)(O)c1cc(O)c(O)c(S(=O)(=O)O)c1,Activity,[1],Active
CC[n+]1c(/C=C/c2ccc(-c3cnn4ccc(N5CCOCC5)nc34)s2)sc2ccccc21.[I-],Activity,[2],Active
same,Activity,[3],Active
same,Activity,[4],Active
same,Activity,[5],Non-toxic
same,Activity,[1],Active
same,Activity,[6],Active
same,IC50,[7],1100 nM
same,Activity,[8],Active
same,Activity,[9],Active
same,Activity,[10],Active
same,Activity,[11],Active
same,IC50,[12],220 nM
same,Activity,[13],Active
same,Activity,[14],Active
same,Activity,[15],Non-toxic
same,Activity,[16],Active
same,Activity,[17],Active
same,Activity,[18],Active
same,Activity,[19],Non-toxic
same,Activity,[20],Active
same,Activity,[21],inactive
same,Activity,[22],Active
same,Activity,[23],Active
same,Activity,[24],Non-toxic
same,Activity,[25],Non-toxic
same,Activity,[26],Active
same,Activity,[27],Time-dependent-effect
same,Activity,[28],Active
same,Drug uptake,[29],Active
same,Activity,[30],Active
same,Activity,[31],Active
same,Activity,[32],Active
same,Activity,[33],Active
same,Activity,[34],Active
same,Activity,[35],Active
same,IC50 at 24 h,[36],> 20000 nM
same,Activity,[37],Non-toxic
same,Activity,[38],Active
same,Activity,[39],Active
same,Activity,[40],inactive
same,Activity,[41],Non-toxic
CC[N+]1=C(/C=C/c2ccc(-c3cnn4ccc(N5CCOCC5)nc34)s2)C(C)(C)c2cc(I)ccc21,IC50,[12],280 nM
same,Activity,[17],Active
same,IC50 at 24 h,[36],> 10000 nM
C[N+]1=C(/C=C/c2ccc(-c3cnn4ccc(N5CCOCC5)nc34)s2)C(C)(C)c2ccccc21,IC50,[12],330 nM
same,Activity,[17],Active
same,IC50 at 24 h,[36],> 10000 nM
